From article PMC11173677, “Identification and Evaluation of Olive Phenolics in the Context of Amine Oxidase Enzyme Inhibition and Depression: In Silico Modelling and In Vitro Validation” (Molecules, 2024)

Columns and labels:
purified MAO-A = biological target: T1, purified MAO-A (Homo sapiens, UniProt P21397); assay: MAO-A direct screening assay (inhibitor screening kit); format: biochemical; conditions: purified enzyme; read-out: IC50, inhibition of MAO-A
T1 construct: purchased Sigma-Aldrich MAK295
T1 sequence (P21397 1-527): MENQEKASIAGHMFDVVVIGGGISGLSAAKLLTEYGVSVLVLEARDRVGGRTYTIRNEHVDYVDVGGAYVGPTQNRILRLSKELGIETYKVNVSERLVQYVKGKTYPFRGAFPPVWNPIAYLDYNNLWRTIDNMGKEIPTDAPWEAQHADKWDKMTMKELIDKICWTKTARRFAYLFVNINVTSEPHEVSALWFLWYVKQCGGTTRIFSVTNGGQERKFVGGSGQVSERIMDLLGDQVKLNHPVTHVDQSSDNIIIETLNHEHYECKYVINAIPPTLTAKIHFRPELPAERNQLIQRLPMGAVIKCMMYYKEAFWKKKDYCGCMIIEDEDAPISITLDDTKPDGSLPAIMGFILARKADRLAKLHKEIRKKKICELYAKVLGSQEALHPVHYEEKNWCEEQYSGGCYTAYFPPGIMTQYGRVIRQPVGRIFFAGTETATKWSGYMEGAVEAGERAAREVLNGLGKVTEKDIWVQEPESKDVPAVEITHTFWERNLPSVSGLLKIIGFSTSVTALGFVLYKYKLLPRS
Protocol: The assays were conducted for MAO-A and MAO-B according to the manufacturer’s instructions.

LSD1 = system: T2, LSD1; assay: LSD1 activity in nuclear extracts of BJ cells stimulated with DEX; format: cell-based, human; conditions: DEX 50 μM 72 h, then TCP 5 μM or OLP, HT, HTA 50 μM for 48 h
T2 construct: nuclear proteins extracted from the BJ cultures were directly assayed for LSD1 activity; endogenous in cells; host or cells: BJ human foreskin fibroblasts (nuclear extract, DEX-stimulated)
Protocol: Histone demethylase LSD1 activity assay
4µL of nuclear extracts containing 5µg protein was added to designated strip wells with stably
captured LSD1 substrate (H3K4me2), followed by an additional 26µL of H3K4me2 (HG3)
substrate diluted in assay buffer (HG2). In no enzyme control wells, the 4µL of nuclear
extracts was replaced with 4µL of assay buffer. Blank wells contained 30µL of assay buffer.
A standard curve was generated by adding 1µL of standard (HG4) at incrementally increasing
concentrations (0.1-10ng/µL) to 29µL of assay buffer in designated standard wells. After all
wells were loaded appropriately, the assay plate was incubated away from light at room
temperature for 60 minutes. Following incubation, contents were aspirated and wells were
washed three times with 150µL of wash buffer (HG1). 50µL of capture antibody (HG5)
diluted at a 1:1000 ratio was then added to all wells before incubating at room temperature
for 60 minutes on a rotating platform. Well contents were then aspirated and washed four
times with 150µL of wash buffer. 50µL of detection antibody (HG6) diluted at a 1:1000 ration
was then added to each well. Assay plate was then incubated for a final time at room
temperature for 30 minutes. Well contents were aspirated again, followed by six washes with
150µL wash buffer. 50µL of fluoro-developer (HG7) was then added into each well and
allowed to develop away from light for 1-5 minutes. Fluorescence was then read on a
CLARIOstar Microplate Reader (BMG Labtech, Ortenberg Germany) at Ex/Em =

purified LSD1 = purified LSD1 (Homo sapiens, UniProt O60341); assay: LSD1 direct screening assay (Epigentek inhibitory screening kit); format: biochemical; conditions: direct incubation with purified LSD1, Epigentek kit; read-out: IC50, inhibition of LSD1
Protocol: Fluorescence was measured using a CLARIOstar Plus Microplate Reader (BMG Labtech, Ortenberg, Germany) at excitation and emission wavelengths of 530 nm and 590 nm, respectively (Ex/Em = 530/590 nm).

MAO-B = system: T3, MAO-B; assay: MAO-B activity assay in hESC-derived neurons stimulated with ATRA; format: cell-based, human; conditions: 1 μM ATRA 24 h, then TCP 5 μM, OLC 50 μM or OLP 50 μM for 24 h
T3 construct: endogenous in cells; host or cells: BJ human foreskin fibroblasts stimulated with DEX or HC
Protocol: An in vitro model of MDD was designed for stem cell-derived neuronal cells through incubation of 1 μM all-trans retinoic acid (Sigma-Aldrich PHR1187, St. Louis, MO, USA). All cell treatments were conducted in duplicate and replicated using independently differentiating neuronal plates.
Activity assays were commercially sourced from BioVision (Abcam, BioVision ab241031, Waltham, MA, USA) and were performed according to manufacturer’s instructions. The treatment groups were plated in duplicate on a black, flat 96-well microplate. The cells were homogenised in assay buffer using a microtube mixer at 4 °C and centrifuged at 10,000× g for 10 min. A Bradford assay was performed to determine the total protein concentration within each cell pellet (200 μg/well for BJ cells, 40 μg/well for hESC-derived neurons). Approximately 40 μL of supernatant was loaded into wells along with 10 μL of either […], or assay buffer for total MAO activity. A H2O2 standard was pipetted as supplied and 50 μL of reaction mix was pipetted into all wells. Using a CLARIOstar Plus Microplate Reader, (BMG Labtech, Ortenberg, Germany), fluorescence was measured kinetically at 25 °C for 60 min with Ex/Em = 535/587 nm.

SMILES: COC(=O)[C@H](O)CC(=O)OCCc1ccc(O)c(O)c1 [OLP, oleohydroxypyretol]
- IC50 (purified MAO-A): 850 nM
- LSD1 activity in BJ cultures stimulated with DEX (LSD1): significant reduction
- IC50 (purified LSD1): 800 nM
- MAO-B activity in hESC-derived neurons (MAO-B): significantly reduced
